Test systems include Escherichia coli W160-37; Bacillus subtilis 168; Saccharomyces cerevisiae; Micrococcus luteus; Staphylococcus aureus.
Holding throughout (experiment): ≥ marks a high value that may be exact or a test limit, other limits are often not marked, values filed in µg/mL are converted to µM
Assay [1] has as its system Staphylococcus aureus ATCC 25923.
In assay [2] the test system is Escherichia coli ATCC 25922.
Assay [3] deals with Candida albicans ATCC 20032.
In assay [4] the test system is Bacillus subtilis ATCC 6633.
The test system of assay [5] is Escherichia coli DH5alpha.
In assay [6] the test system is Acinetobacter baumannii ATCC 19606.
The subject of assay [7] is Pseudomonas aeruginosa ATCC 27853.
For assay [8], the system named is Bacillus subtilis ATCC 23857.
The test system of assay [9] is Klebsiella pneumoniae ATCC 700603.
In assay [10] the test system is Staphylococcus aureus NCTC 8325.
The test system of assay [11] is Pseudomonas aeruginosa ATCC 15692.
Assay [12] deals with Xanthomonas fragariae Xf349-9A.
Assay [13] relates to Pseudomonas syringae pv. syringae EPS 94.
Assay [14] has as its system Erwinia amylovora PMV 6076.
The test system of assay [15] is Xanthomonas campestris pv. Vesicatoria 2133-2.
In assay [16] the test system is Xanthomonas arboricola pv. pruni CFBP 5563.
Assay [17] has as its system Pseudomonas syringae pv. actinidiae Psa3700.1.1.

For 9 molecules, MIC results are on record in DBAASP.

SMILES strings stand for the structures. ≈ marks a conversion by molar mass, not a printed value.

With `CC(C)C[C@@H]1NC(=O)[C@H](CO)NC(=O)[C@H](Cc2ccc(O)cc2)NC(=O)[C@H](CCC(=O)O)NC(=O)[C@H](Cc2ccccc2)NC(=O)[C@H](C)NC(=O)[C@H](Cc2ccccc2)NC(=O)[C@@H]2CSSC[C@@H](C(=O)N[C@H](C(=O)N3CCC[C@H]3C(=O)N[C@@H](CC(N)=O)C(=O)N[C@H](C(=O)N[C@@H](Cc3ccccc3)C(=O)O)[C@@H](C)O)C(C)C)NC(=O)[C@@H]3CSSC[C@H](NC(=O)CNC(=O)[C@H](Cc4c[nH]c5ccccc45)NC(=O)[C@@H](NC(=O)[C@H](C)NC(=O)[C@@H](N)Cc4ccccc4)C(C)C)C(=O)N[C@@H](C)C(=O)N[C@@H](CC(=O)O)C(=O)N[C@@H](Cc4ccc(O)cc4)C(=O)N[C@@H](CCCN=C(N)N)C(=O)NCC(=O)N[C@@H](Cc4ccc(O)cc4)C(=O)N[C@@H](CSSC[C@H](NC(=O)CNC(=O)[C@H](CCCCN)NC(=O)[C@@H]4CCCN4C(=O)CNC1=O)C(=O)N[C@@H]([C@@H](C)O)C(=O)N[C@@H](CCC(=O)O)C(=O)NCC(=O)N[C@@H](Cc1ccc(O)cc1)C(=O)N[C@@H](C(C)C)C(=O)N3)C(=O)N[C@@H](CCCN=C(N)N)C(=O)N[C@@H](C)C(=O)N[C@@H](C)C(=O)N2` [FAVWGCADYRGYCRAACFAFEYSLGPKGCTEGYVCCVPNTF], the minimal inhibitory concentration (MIC) is 14.4 µM (≈ 64.9 µg/mL) in assay [1], 35.3 µM (≈ 160 µg/mL) in assay [2], at least 44.2 µM in [3] and 29.8 µM (≈ 135 µg/mL) in assay [4].

On to `CC[C@H](C)[C@H](NC(=O)[C@H](CC(C)C)NC(=O)[C@H](C)NC(=O)[C@H](CC(C)C)NC(=O)[C@@H](N)Cc1ccccc1)C(=O)N[C@@H](CC(C)C)C(=O)N[C@@H](CCCN=C(N)N)C(=O)N[C@@H](CCCCN)C(=O)N[C@H](C(=O)N[C@H](C(=O)N[C@H](C(=O)N[C@@H](C)C(=O)N[C@@H](CC(C)C)C(N)=O)[C@@H](C)O)C(C)C)[C@@H](C)CC` [FLALILRKIVTAL], for which, in the assay on Escherichia coli W160-37, the MIC was at least 40.8 µM.

As for `CC[C@H](C)[C@H](NC(=O)CN)C(=O)NCC(=O)NCC(=O)N[C@@H](C)C(=O)N[C@@H](CC(C)C)C(=O)N[C@@H](CC(C)C)C(=O)N[C@@H](CO)C(=O)N[C@H](C(=O)NCC(=O)N[C@@H](CCCCN)C(=O)N[C@@H](CC(C)C)C(=O)N[C@@H](C)C(=O)N[C@@H](CC(C)C)C(=O)N[C@@H](CCCCN)C(=O)NCC(=O)N[C@@H](CC(C)C)C(=O)N[C@@H](C)C(=O)N[C@@H](CC(N)=O)C(=O)N[C@H](C(=O)N[C@@H](CC(C)C)C(=O)N[C@@H](C)C(=O)N[C@@H](CC(=O)O)C(=O)N[C@@H](CCCCN)C(=O)N[C@@H](Cc1ccccc1)C(=O)N[C@@H](C)C(=O)N[C@@H](CC(N)=O)C(N)=O)C(C)C)C(C)C` [GIGGALLSVGKLALKGLANVLADKFAN], the MIC in [1] is 1.8 µM (≈ 4.7 µg/mL); in assay [2], above 38.3 µM; in [3], 14.4 µM (≈ 37.5 µg/mL); in [4], 14.4 µM (≈ 37.5 µg/mL).

Take `CC[C@H](C)[C@H](NC(=O)[C@H](CCCCN)NC(=O)[C@H](CCCCN)NC(=O)[C@@H](NC(=O)[C@@H](NC(=O)[C@H](CCCCN)NC(=O)[C@H](CCCCN)NC(=O)[C@@H](NC(=O)[C@@H](NC(=O)[C@H](CCCCN)NC(=O)[C@H](CCCCN)NC(=O)[C@@H](NC(=O)[C@@H](NC(=O)[C@H](CCCCN)NC(=O)[C@H](CCCCN)NC(=O)[C@@H](NC(=O)[C@@H](NC(=O)CN)[C@@H](C)CC)[C@@H](C)CC)[C@@H](C)CC)[C@@H](C)CC)[C@@H](C)CC)[C@@H](C)CC)[C@@H](C)CC)[C@@H](C)CC)C(N)=O` [GIIKKIIKKIIKKIIKKI]: the MIC in the assay on Bacillus subtilis 168 turned out to be 0.5 µM (≈ 1.06 µg/mL); in assay [1], 4 µM (≈ 8.47 µg/mL); in [5], 2 µM (≈ 4.24 µg/mL); in assay [2] it was 8 µM (≈ 16.9 µg/mL); in assay [6], 4 µM (≈ 8.47 µg/mL); in assay [7], 4 µM (≈ 8.47 µg/mL). The MIC amounted to 2 µM (≈ 4.24 µg/mL) in [8] and 8 µM (≈ 16.9 µg/mL) in assay [9].

As to `CC[C@H](C)[C@H](NC(=O)[C@H](C)NC(=O)[C@H](CCC(=O)O)NC(=O)[C@H](CC(C)C)NC(=O)CNC(=O)CNC(=O)[C@H](CCCCN)NC(=O)[C@H](C)NC(=O)[C@H](Cc1ccccc1)NC(=O)[C@H](CCCCN)NC(=O)[C@H](CCCCN)NC(=O)[C@H](CC(C)C)NC(=O)CNC(=O)CNC(=O)[C@H](CC(C)C)NC(=O)[C@@H](NC(=O)[C@@H](NC(=O)[C@H](CO)NC(=O)[C@H](Cc1c[nH]c2ccccc12)NC(=O)[C@@H](NC(=O)CN)C(C)C)[C@@H](C)O)C(C)C)C(=O)N[C@H](C(=O)N[C@@H](CC(N)=O)C(=O)N1CCC[C@H]1C(=O)N[C@@H](CCCCN)C(=O)O)C(C)C` [GVWSTVLGGLKKFAKGGLEAIVNPK], the minimum inhibitory concentration (MIC) in the assay on Saccharomyces cerevisiae was at least 32 µM; in assay [10], at least 100 µM; in [1], 45.3 µM (≈ 116 µg/mL); in assay [2] it was 5.66 µM (≈ 14.5 µg/mL); in assay [11], at least 32 µM; in the assay with Micrococcus luteus, 0.5 µM (≈ 1.29 µg/mL).

Turning to `CC[C@H](C)[C@H](N)C(=O)N[C@@H](CC(C)C)C(=O)N1CCC[C@H]1C(=O)N[C@@H](CC(C)C)C(=O)N[C@@H](CCCCN)C(=O)N[C@@H](CC(C)C)C(=O)N1CCC[C@H]1C(=O)N[C@@H](Cc1c[nH]c2ccccc12)C(=O)N[C@@H](CC(C)C)C(=O)N1CCC[C@H]1C(=O)N[C@@H](CC(C)C)C(=O)N[C@@H](CCCN=C(N)N)C(=O)N[C@@H](CCCN=C(N)N)C(N)=O` [ILPLKLPWLPLRR], the figures for the MIC in the assay with Escherichia coli W160-37 and in the assay on Staphylococcus aureus were 12.4 µM (≈ 20 µg/mL) and 6.19 µM (≈ 9.99 µg/mL), respectively.

Regarding `CC[C@H](C)[C@H](NC(=O)[C@H](Cc1c[nH]c2ccccc12)NC(=O)[C@H](CCCCN)NC(=O)[C@H](CC(C)C)NC(=O)[C@H](Cc1ccccc1)NC(=O)[C@H](CCCCN)NC(=O)[C@H](CC(C)C)NC(=O)[C@H](CC(C)C)NC(=O)[C@H](CCCCN)NC(=O)[C@@H]1CCCN1)C(=O)NCC(=O)O` [PKLLKFLKWIG], the MIC against Escherichia coli W160-37 was determined as 31 µM (≈ 41.6 µg/mL); in the assay on Staphylococcus aureus, 8 µM (≈ 10.7 µg/mL).

`CC[C@H](C)[C@H](NC(=O)[C@H](CC(C)C)NC(=O)[C@H](CCCCN)NC(=O)[C@H](CO)NC(=O)[C@H](C)NC(=O)CNC(=O)[C@H](CCCCN)NC(=O)[C@H](CC(C)C)NC(=O)[C@H](C)NC(=O)[C@H](CCSC)NC(=O)[C@H](CCCCN)NC(=O)[C@H](C)NC(=O)[C@H](Cc1ccccc1)NC(=O)[C@@H](NC(=O)CNC(=O)[C@H](Cc1ccccc1)NC(=O)[C@H](CC(C)C)NC(=O)[C@@H](N)CO)[C@@H](C)O)C(=O)N1CCC[C@H]1C(=O)N[C@@H](Cc1cnc[nH]1)C(=O)N[C@@H](CC(C)C)C(=O)N[C@@H](CC(C)C)C(=O)N1CCC[C@H]1C(=O)N[C@@H](CO)C(=O)N[C@@H](CCCN=C(N)N)C(=O)N[C@@H](CCC(N)=O)C(=O)N[C@@H](CCC(N)=O)C(=O)O` [SLFGTFAKMALKGASKLIPHLLPSRQQ]: the MIC in the assay with Saccharomyces cerevisiae stood at 16 µM; in [1] it was 1 µM; in assay [2], 2.83 µM; in assay [11], 5.66 µM; with Micrococcus luteus, 0.5 µM.

`CSCC[C@H](NC(=O)CNC(=O)[C@@H](NC(=O)[C@H](CO)NC(=O)[C@H](Cc1ccccc1)NC(=O)[C@@H](NC(=O)[C@H](Cc1ccccc1)NC(=O)[C@H](Cc1ccc(O)cc1)NC(=O)[C@H](CO)NC(=O)[C@H](CCC(=O)O)NC(=O)[C@@H](N)[C@@H](C)O)C(C)C)C(C)C)C(N)=O` [TESYFVFSVGM]: the minimal inhibitory concentration (MIC) in [12] is at least 50 µM; in [13], at least 50 µM; in assay [14], at least 50 µM; in [15] it was at least 50 µM; in assay [16], 17.7 µM (≈ 22.4 µg/mL); in assay [17], 17.7 µM (≈ 22.4 µg/mL).
